The results in this text go back to the OligoGym collection.

This data set has as its target HSD17B13. Particulars: ASO, HepaRG.

After the bases stand the sugars from the 5' end (letter, count) and the backbone: PS all phosphorothioate, else s phosphorothioate and o phosphodiester by linkage. Methylation of C is not given here. e = 2'-O-(2-methoxyethyl) (MOE); k = constrained ethyl (cEt); d = 2'-deoxy (DNA); m = 2'-O-methyl

For the sequence CAGTCTTAAACCTTCC (sugars k3 d10 k3, PS), the target mRNA inhibition (1 µM) worked out at 70%. For the sequence TAATAATGGGCAGAGC (sugars k3 d10 k3, PS), the target mRNA inhibition (1 µM) came to 30%.

CATCTAACTAACCTGA (sugars k3 d10 k3, PS): the target mRNA inhibition (1 µM) was 0%. For TGTAAAGTTTGTTAGA (sugars k3 d10 k3, PS), the target mRNA inhibition (1 µM) is 35%. Still for that read-out and setting: the value for GTCACCTTTCATAATG (sugars k3 d10 k3, PS) was 45%.

As for ATAACTACAAGAGGTT (sugars k3 d10 k3, PS), the target mRNA inhibition (1 µM) is 64%.

Regarding GTTAAAACTTCATTCC (sugars k3 d10 k3, PS), where the note is “1 µM”, the target mRNA inhibition turned out to be 5%. Still for that read-out and setting: the value for AGTGTAAGCTGAGAGT (sugars k3 d10 k3, PS) was 71%; that for “TGCCAAACCAATGTTT (sugars kkdddddddddkekek, PS)” was 61%; that for TAACTGAGTTATTCTC (sugars k3 d10 k3, PS) was 41%. AGTCATTTTTAATACG (sugars k3 d10 k3, PS) showed a target mRNA inhibition (1 µM) of 13%. For the setting “1 µM”, TAATTACAACCTGGTT (sugars k3 d10 k3, PS) yielded a target mRNA inhibition of 52%.

In the case of AGCCACTGTGACGATG (sugars k3 d10 k3, PS), the target mRNA inhibition (1 µM) was 10%. With TCTATAGCTAAGTATA (sugars k3 d10 k3, PS), the target mRNA inhibition (1 µM) was 0%. On the same count and under the same terms, the value for CCGCACACTGAAGCCA (sugars k3 d10 k3, PS) was 34%; that for GACCAATATAATCCAA (sugars k3 d10 k3, PS) was 34%. For CATAGGACATGGAGAC (sugars k3 d10 k3, PS), the target mRNA inhibition is, setting by setting: (0.02 µM) 0%; (0.078 µM) 16%; (0.313 µM) 37%; (1 µM) 69%; (1.25 µM) 58%; (5 µM) 83%. Take GACTAATGCAAGATTT (sugars k3 d10 k3, PS): where the note is “1 µM”, the target mRNA inhibition was 55%. As for CACCTTATTAATATCC (sugars k3 d10 k3, PS), the target mRNA inhibition (1 µM) came out at 34%. Turning to CTTCTATTAGTTGGCC (sugars k3 d10 k3, PS), the target mRNA inhibition (1 µM) was 11%.

In the case of “TACCTCTAAGTTAGCC (sugars kkdddddddddkekek, PS)”, the target mRNA inhibition (1 µM) was 20%. The sequence “TGGTAACGGTGATCAA (sugars k3 d9 k3 e1, PS)” gave a target mRNA inhibition (1 µM) of 35%. Sequence “GTAGCTTTTGTCCACC (sugars k3 d9 k3 e1, PS)” had a target mRNA inhibition (1 µM) of 67%. On to CATAACCTAATAACTA (sugars k3 d10 k3, PS), for which, where the note is “1 µM”, the target mRNA inhibition was 10%. In the case of “CTTTGCAGCATTGATT (sugars k3 d9 k3 e1, PS)”, where the note is “1 µM”, the target mRNA inhibition was determined as 56%.

The sequence TTTAGGGAGGTAGCTT (sugars k3 d10 k3, PS) displayed a target mRNA inhibition (1 µM) of 24%. GTTTAGAAGTCAAACG (sugars k3 d10 k3, PS) displayed a target mRNA inhibition (1 µM) of 0%. GCTCCAGTAATGAGAA (sugars k3 d10 k3, PS) came in with a target mRNA inhibition (1 µM) of 34%. On the same count and under the same terms, the value for “TTGCAGTTATTAGAAG (sugars k3 d1 m1 d8 k3, PS)” was 17%; that for AATTATGCCTTGTGGC (sugars k3 d10 k3, PS) was 19%.

In turn, CTGGGACCAAGGATAT (sugars k3 d10 k3, PS) yielded a target mRNA inhibition (1 µM) of 32%. Turning to CCATCTATCAGACTTC (sugars k3 d10 k3, PS), the target mRNA inhibition is, setting by setting: (0.02 µM) 0%; (0.078 µM) 0%; (0.313 µM) 20%; (1 µM) 78%; (1.25 µM) 63%; (5 µM) 78%. For the sequence GTTAGCAAAACACTTG (sugars k3 d10 k3, PS), the target mRNA inhibition was found to be 1% (0.02 µM); 15% (0.078 µM); 44% (0.313 µM); 71% (1 µM); 68% (1.25 µM); 81% (5 µM).

For TTCTATTGTATGAGGT (sugars k3 d10 k3, PS), the target mRNA inhibition (1 µM) amounted to 0%. AAATTGATACACCAAT (sugars k3 d10 k3, PS): the target mRNA inhibition (1 µM) worked out at 14%.

As to “AACTTCATAGTGGACT (sugars k3 d9 k3 e1, PS)”, for the setting “1 µM”, the target mRNA inhibition was found to be 70%.

In turn, “GTGGCATGGCTACAGA (sugars k3 d1 m1 d8 k3, PS)” registered a target mRNA inhibition (1 µM) of 49%. The same measure, in the same setting: the value for CTGGAGGTATGTCATA (sugars k3 d10 k3, PS) was 23%.

The sequence “CATCUCTGGGACCAAG (sugars k3 d1 m1 d8 k3, PS)” came in with a target mRNA inhibition (1 µM) of 42%. The sequence GCAGAATATATACTAG (sugars k3 d10 k3, PS) displayed a target mRNA inhibition (1 µM) of 55%. Same read-out and setting: to TTCTAGGATGATGTTC (sugars k3 d10 k3, PS) belongs 72%; to CATCTAGAATTAAGGG (sugars k3 d10 k3, PS), 53%. Consider AGGATGATGTTCATGG (sugars k3 d10 k3, PS), for which the target mRNA inhibition is, setting by setting: (0.02 µM) 25%; (0.078 µM) 27%; (0.313 µM) 71%; (1 µM) 88%; (1.25 µM) 80%; (5 µM) 71%. CTCCAATACAGGCCAT (sugars k3 d10 k3, PS): the target mRNA inhibition (1 µM) was determined as 20%.

Under “1 µM”, GGAATGCTACTTGAAC (sugars k3 d10 k3, PS) gave a target mRNA inhibition of 63%. On to TGCAAAGTTAATAGGA (sugars k3 d10 k3, PS), for which the target mRNA inhibition (1 µM) is 43%. As to “CCAACCAAACTTCCAG (sugars k3 d1 m1 d8 k3, PS)”, the target mRNA inhibition (1 µM) turned out to be 30%. On to TAAACCCTGGAGCAGC (sugars k3 d10 k3, PS), for which the target mRNA inhibition (1 µM) came to 66%. As to GAACCTATGTGTGCAC (sugars k3 d10 k3, PS), for the setting “1 µM”, the target mRNA inhibition was determined as 53%. TCAGAACAGTTCAACT (sugars k3 d10 k3, PS): under “1 µM”, the target mRNA inhibition is 30%.

Under “1 µM”, AGTTAGGGAGCCAGCG (sugars k3 d10 k3, PS) had a target mRNA inhibition of 38%. For CCTTACCTTGTGCTTG (sugars k3 d10 k3, PS), the target mRNA inhibition (1 µM) is 20%. Under “1 µM”, TGAGAGTATAAATGGC (sugars k3 d10 k3, PS) gave a target mRNA inhibition of 67%. On the same count and under the same terms, the value for ATTAAGACAGTTGAGT (sugars k3 d10 k3, PS) was 34%; that for AAGTTAGCCCCCAGGA (sugars k3 d10 k3, PS) was 36%. Turning to AGTGAATCATTCAGTA (sugars k3 d10 k3, PS), the target mRNA inhibition was 49% (0.02 µM); 54% (0.078 µM); 80% (0.313 µM); 86% (1 µM); 93% (1.25 µM); 94% (5 µM). In turn, GCATTCATCAGATGTT (sugars k3 d10 k3, PS) showed a target mRNA inhibition (0.02 µM) of 3%; a target mRNA inhibition (0.078 µM) of 24%; a target mRNA inhibition (0.313 µM) of 66%; a target mRNA inhibition (1 µM) of 89%; a target mRNA inhibition (1.25 µM) of 86%; a target mRNA inhibition (5 µM) of 91%. TCATAGCTCACTTAGT (sugars k3 d10 k3, PS) showed a target mRNA inhibition (1 µM) of 0%.

On to GATACCCAGGTTGCTT (sugars k3 d10 k3, PS), for which the target mRNA inhibition (1 µM) came out at 53%. Still for that read-out and setting: to GATTTCTAGGATGATG (sugars k3 d10 k3, PS) belongs 57%; to “CATATGTGAAGAGCTG (sugars k3 d9 k3 e1, PS)”, 50%. In the case of “ATAGAGTTGCACCGTT (sugars k3 d1 m1 d8 k3, PS)”, the target mRNA inhibition (1 µM) was determined as 59%. For the sequence TATACGATGGAACAAA (sugars k3 d10 k3, PS), where the note is “1 µM”, the target mRNA inhibition was determined as 4%. The sequence TTTCGGCACTCAGCTG (sugars k3 d10 k3, PS) gave a target mRNA inhibition (1 µM) of 29%. Where the note is “1 µM”, GGCAAATACAGCAGTA (sugars k3 d10 k3, PS) displayed a target mRNA inhibition of 64%.

Sequence CTTATGATAATTTGGT (sugars k3 d10 k3, PS) gave a target mRNA inhibition (1 µM) of 2%. Still for that read-out and setting: to GATCGGCTGGATATAC (sugars k3 d10 k3, PS) belongs 7%; to ATTCTAAACTAGTGGT (sugars k3 d10 k3, PS), 39%; to TATTCTTATGTCATCC (sugars k3 d10 k3, PS), 75%. Where the note is “1 µM”, GATGATTCTGACTCAT (sugars k3 d10 k3, PS) yielded a target mRNA inhibition of 55%.

In turn, GACTTTGAGACTCTTG (sugars k3 d10 k3, PS) returned a target mRNA inhibition (1 µM) of 65%. The sequence GTTTAGCAATTTAGCA (sugars k3 d10 k3, PS) showed a target mRNA inhibition (1 µM) of 50%. Under “1 µM”, TCTATCAGACTTCTTA (sugars k3 d10 k3, PS) registered a target mRNA inhibition of 49%. CCCAACCCAAGCTACC (sugars k3 d10 k3, PS) displayed a target mRNA inhibition (1 µM) of 22%.

For the setting “1 µM”, ACTTGATCTCTTAGCT (sugars k3 d10 k3, PS) returned a target mRNA inhibition of 59%. Consider “ACTACAAGAGGTTATT (sugars k3 d9 k3 e1, PS)”, for which the target mRNA inhibition (1 µM) was 58%. On the same count and under the same terms, the value for GGATAGTCCATGCAAA (sugars k3 d10 k3, PS) was 64%; that for “GTTCTTGTTGATATTC (sugars kkdddddddddkekek, PS)” was 66%. Still for that read-out and setting: the value for GCATGGCTACAGATTG (sugars k3 d10 k3, PS) was 56%; that for AGGTAAGGAATCCCTT (sugars k3 d10 k3, PS) was 0%; that for “TTGCACCGTTTTGGGC (sugars kkdddddddddkekek, PS)” was 26%. Take “TCTTGACAATGGTTGC (sugars k3 d9 k3 e1, PS)”: the target mRNA inhibition by setting is: (0.02 µM) 0%; (0.078 µM) 0%; (0.313 µM) 11%; (1 µM) 77%; (1.25 µM) 46%; (5 µM) 79%.
